Measurements: article PMC8729770, “In Vitro Evaluation of Antimicrobial Peptides from the Black Soldier Fly (Hermetia Illucens) against a Selection of Human Pathogens” (Microbiology Spectrum, 2022)
Like-named read-outs stand apart in the source and are kept apart here. Ends that are not written are not given here. Peptide text beside a SMILES is read from it.

Assays:
[1] = Cytotoxicity screening of the peptide library; assay type: cell-based, human; settings: human; both repeats; read-out: IC50 cell toxicity MRC5-SV2
Protocol: (§1) To determine early signs of peptide toxicity, the library was tested against the MRC5-SV2 cell line of human, embryonic lung fibroblasts (Sigma-Aldrich). Peptides were serially diluted in 96-well plates as described earlier at concentrations ranging from 64 μM to 0.25 μM for the first screening, and from 32 μM to 0.016 μM for the independent repeat. Tamoxifen (Sigma-Aldrich) was included as a reference compound. After preparation of the test plates, cell suspension (190 μL) of 1.5 × 10^5 cells/mL in complete minimum essential medium (Gibco) was added to the peptides. Plates were incubated for 72 h at 37°C in a 5% CO2 incubator (Binder). Afterwards, 50 μL of a 0.01% (wt/vol) resazurin (Sigma-Aldrich) solution was added to the wells to detect cell viability.

S. aureus ATCC 6538 = assay type: cell-based, Staphylococcus aureus; settings: 16 h; for MIC S. aureus ATCC 6538: determined visually; for IC50: MHB, 37°C, resazurin, 50% growth inhibition
Protocol: (§2) To detect antimicrobial activity of the BSF AMPs, the peptide library underwent screening against a panel of microorganisms, consisting of S. aureus ATCC 6538, E. coli ATCC 8739, P. aeruginosa ATCC 9027, C. albicans B59630, and A. fumigatus B42928. Serial dilutions of the peptides were prepared from the DMSO stock solutions in sterile demineralized water in 96-well plates using an automated liquid-handling workstation (Beckman Coulter Biomek 3000) in end volumes of 10 μL. The final in-plate concentration of DMSO was <1%. Peptide concentrations ranged from 64 μM to 0.25 μM for the first evaluation, and from 32 μM to 0.016 μM for the independent repeat. As references, doxycycline (Sigma-Aldrich; S. aureus, E. coli, P. aeruginosa), flucytosine (Sigma-Aldrich; C. albicans), and econazole (Sigma-Aldrich; A. fumigatus) were used. Suspensions of a starting inoculum of 5 × 10^3 CFU/mL (E. coli, S. aureus, C. albicans, A. fumigatus) and 5 × 10^4 CFU/mL (P. aeruginosa) were prepared in MHB (bacterial species) or RPMI medium (fungal species) and 190 μL was added to the 96-well plates. Plates were incubated for 16 h (E. coli, S. aureus, P. aeruginosa), 24 h (C. albicans), or 48 h (A. fumigatus) at 37°C. After incubation, read-out of the antimicrobial activity was performed using a resazurin assay. Then, 20 μL of a 0.01% (wt/vol) resazurin (Sigma-Aldrich) solution was added to each well and plates were incubated for 15 min (S. aureus), 30 min (E. coli), 45 min (P. aeruginosa), 4 h (C. albicans), or 17 h (A. fumigatus) to allow resazurin reduction to take place. Fluorescence was read using a microplate reader (Telix) at λexcitation = 550 nm and λemission = 590. […] MIC values were determined visually. Medium in the wells with no visual growth was plated on MHA to detect the MBC, defined as ≥3 log reduction compared with the growth control.

E. coli ATCC 8739 [2] = assay type: cell-based, Escherichia coli; settings: for IC50: MHB, 37°C, resazurin
Protocol: as §2

P. aeruginosa ATCC 9027 = assay type: cell-based, Pseudomonas aeruginosa; settings: 16 h; for MIC P. aeruginosa ATCC 9027: determined visually; for IC50: MHB, 37°C, resazurin
Protocol: as §2

E. coli ATCC 8739 [3] = settings: ATCC 8739, 16 h
P. aeruginosa ATCC 15442 = settings: ATCC 15442, 16 h
K. pneumoniae ATCC 13883 = settings: ATCC 13883, 16 h
B. cenocepacia LMG 16656 = settings: for IC50: read-out: IC50 B. cenocepacia LMG 16656, starting at 32 μM, 10^5 CFU/mL, 48 h, 37°C, resazurin; for MIC B. cenocepacia LMG 16656: visual
[4] = system: M. tuberculosis ATCC 25177 (H37Ra); settings: for IC50: read-out: IC50 M. tuberculosis ATCC 25177 (H37Ra), starting at 32 μM, 5×10^5 CFU/mL, 7 days, 37°C, resazurin; for MIC M. tuberculosis ATCC 25177 (H37Ra): visual
[5] = system: preformed P. aeruginosa ATCC 15442 biofilm; assay: Biofilm eradication (postexposure); assay type: cell-based, Pseudomonas aeruginosa; settings: at 64 μM and 128 μM; resazurin
Protocol: After 16 h of incubation at 37°C and shaking at 110 rpm (New Brunswick Innova 4300), a resazurin assay was used as described by Gilbert-Girard et al. to determine the viability of the bacterial cells in the biofilm ([79]). After incubation, the growth medium was removed from the well plates and the bacterial biofilms were washed once with PBS to remove remaining planktonic cells. […] The fluorescence of the wells was measured at λexcitation = 550 nm and λemission = 590 using a microplate reader (Promega). Afterwards, a crystal violet staining was applied to determine the biomass of the biofilms ([79]). The resazurin solution was removed from the well plates and 200 μL of 100% ethanol (VWR Chemicals) was added to fix the biofilms. After 15 min of incubation, the ethanol was discarded from the wells and the plates were left to air dry for 30 min. […] The staining solution was removed after 5 min and the biofilms were washed with PBS. After air-drying for 10 min, the crystal violet stain was solubilized in 200 μL of 100% ethanol. […] The experiment was carried out three times. Polymyxin B sulfate (Sigma-Aldrich) was included as a reference. […] The next day, bacterial viability and biomass were determined with a resazurin assay and crystal violet assay as described earlier. […]

[6] = system: MRC5-SV2 cell line of human, embryonic lung fibroblasts; assay: Cytotoxicity screening of the peptide library; assay type: cell-based; settings: 72 h, 37°C, resazurin fluorescence
Protocol: as §1

C. albicans B59630 = assay type: cell-based, Candida albicans; settings: RPMI, 24 h, 37°C, resazurin
Protocol: as §2

A. fumigatus B42928 = assay type: cell-based, Aspergillus fumigatus; settings: RPMI, 48 h, 37°C, resazurin
Protocol: as §2

[7] = repeat 1, 64-0.25 μM, determined visually, 16 h
[8] = repeat 2, 32-0.016 μM, determined visually, 16 h

Molecule: FNNLPICVEGLAGDIGSILLGVESDIGALAGAIANLALIAGECAAQGEAGAAICA-NH2 (cysteines drawn unpaired) [Hill-Stom1]
- IC50 [1]: < 32 µM
- MIC S. aureus ATCC 6538 (S. aureus ATCC 6538; repeat 1, 64-0.25 μM): > 64.00 µM
- MIC S. aureus ATCC 6538 (S. aureus ATCC 6538; repeat 2, 32-0.016 μM): > 32.00 µM
- MIC E. coli ATCC 8739 (E. coli ATCC 8739 [2]; [7]): > 32.00 µM
- MIC E. coli ATCC 8739 (E. coli ATCC 8739 [2]; [8]): > 64.00 µM
- MIC P. aeruginosa ATCC 9027 (P. aeruginosa ATCC 9027; repeat 1, 64-0.25 μM): > 32.00 µM
- MIC P. aeruginosa ATCC 9027 (P. aeruginosa ATCC 9027; repeat 2, 32-0.016 μM): > 64.00 µM

Molecule: SWWKKVFKPVEKLGQRVRDATIQGIGIAQQGANVLATVRGGPPQ-NH2 [Hill-Cec1]
- MIC E. coli ATCC 8739 (E. coli ATCC 8739 [2]; ATCC 8739, 16 h): 0.25 µM
- IC50 (E. coli ATCC 8739 [3]): 0.15 µM
- MIC P. aeruginosa ATCC 15442 (P. aeruginosa ATCC 15442): 1 µM
- MIC K. pneumoniae (K. pneumoniae ATCC 13883): 0.25 to 0.5 µM
- IC50 (B. cenocepacia LMG 16656; repeat 1): > 32 µM
- IC50 (B. cenocepacia LMG 16656; repeat 2): > 32 µM
- MIC B. cenocepacia LMG 16656 (B. cenocepacia LMG 16656; repeat 1): >32 µM
- MIC B. cenocepacia LMG 16656 (B. cenocepacia LMG 16656; repeat 2): >32 µM
- IC50 ([4]; repeat 1): > 32 µM
- IC50 ([4]; repeat 2): > 32 µM
- MIC M. tuberculosis ATCC 25177 (H37Ra) ([4]; repeat 1): >32 µM
- MIC M. tuberculosis ATCC 25177 (H37Ra) ([4]; repeat 2): >32 µM

Molecule: polymyxin B [reference compound]
- reduction in viability of preformed biofilm [5]: over 70%

Molecule: CC[C@H](C)[C@H](N)C(=O)N[C@@H](CCCCN)C(=O)N[C@@H](CS)C(=O)N[C@H](C(=O)N1CCC[C@H]1C(=O)N[C@@H](CO)C(=O)N[C@@H](CCC(N)=O)C(=O)N[C@@H](CS)C(=O)N[C@@H](CC(N)=O)C(=O)N[C@@H](CCC(N)=O)C(=O)N[C@H](C(=O)N[C@@H](CS)C(=O)N[C@@H](CCCNC(=N)N)C(=O)N[C@H](C(=O)N[C@@H](CC(C)C)C(=O)NCC(=O)N[C@@H](CCCCN)C(=O)N[C@@H](CCCCN)C(=O)N[C@@H](CS)C(=O)NCC(=O)N[C@@H](Cc1ccc(O)cc1)C(=O)N[C@@H](CS)C(=O)N[C@@H](CCCCN)C(=O)N[C@@H](CC(N)=O)C(=O)N[C@@H](C)C(=O)N[C@@H](CO)C(=O)N[C@H](C(=O)N[C@@H](CS)C(=O)N[C@H](C(=O)N[C@@H](CS)C(=O)N[C@@H](CC(C)C)C(N)=O)C(C)C)[C@@H](C)O)C(C)C)[C@@H](C)CC)C(C)C [Hill-Knot2] (H-IKCVPSQCNQICRVLGKKCGYCKNASTCVCL-NH2; N-terminus assumed)
- IC50 [1]: < 32 µM

Molecule: VTCDLLEPFLGPAPCMIHCIVRFRKRTGYCNSQNVCVCR [Hill-Def1, Defensin without disulfide bridges, C-terminal amidation]
- IC50 ([6]; repeat 1, first screening 64-0.25 μM): > 64 µM
- IC50 ([6]; repeat 2, independent repeat 32-0.016 μM): > 32 µM
- IC50 (S. aureus ATCC 6538; repeat 1, 64-0.25 μM): > 64 µM
- MIC S. aureus ATCC 6538 (S. aureus ATCC 6538; repeat 1, 64-0.25 μM): > 64.00 µM
- IC50 (S. aureus ATCC 6538; repeat 2, 32-0.016 μM): > 32 µM
- MIC S. aureus ATCC 6538 (S. aureus ATCC 6538; repeat 2, 32-0.016 μM): > 32.00 µM
- IC50 (E. coli ATCC 8739 [2]; repeat 1, 64-0.25 μM, 16 h): > 64 µM
- MIC E. coli ATCC 8739 (E. coli ATCC 8739 [2]; [7]): > 64.00 µM
- IC50 (E. coli ATCC 8739 [2]; repeat 2, 32-0.016 μM, 16 h): > 32 µM
- MIC E. coli ATCC 8739 (E. coli ATCC 8739 [2]; [8]): > 32.00 µM
- IC50 (P. aeruginosa ATCC 9027; repeat 1, 64-0.25 μM): > 64 µM
- MIC P. aeruginosa ATCC 9027 (P. aeruginosa ATCC 9027; repeat 1, 64-0.25 μM): > 64.00 µM
- IC50 (P. aeruginosa ATCC 9027; repeat 2, 32-0.016 μM): > 32 µM
- MIC P. aeruginosa ATCC 9027 (P. aeruginosa ATCC 9027; repeat 2, 32-0.016 μM): > 32.00 µM
- IC50 (C. albicans B59630; repeat 1, 64-0.25 μM): > 64 µM
- IC50 (C. albicans B59630; repeat 2, 32-0.016 μM): > 32 µM
- IC50 (A. fumigatus B42928; repeat 1, 64-0.25 μM): > 64 µM
- IC50 (A. fumigatus B42928; repeat 2, 32-0.016 μM): > 32 µM
